The experiment concerns the target murine wtIDH1 (KPC cells) (Mus musculus, UniProt O88844). Nature of the experiment: cell-based IDH activity assay, NADPH synthesis, after IDH2 siRNA. Particulars: KPC murine cells, […] MgSO4, […] h; allosteric.

Chain of murine wtIDH1 (KPC cells) (O88844 2-414): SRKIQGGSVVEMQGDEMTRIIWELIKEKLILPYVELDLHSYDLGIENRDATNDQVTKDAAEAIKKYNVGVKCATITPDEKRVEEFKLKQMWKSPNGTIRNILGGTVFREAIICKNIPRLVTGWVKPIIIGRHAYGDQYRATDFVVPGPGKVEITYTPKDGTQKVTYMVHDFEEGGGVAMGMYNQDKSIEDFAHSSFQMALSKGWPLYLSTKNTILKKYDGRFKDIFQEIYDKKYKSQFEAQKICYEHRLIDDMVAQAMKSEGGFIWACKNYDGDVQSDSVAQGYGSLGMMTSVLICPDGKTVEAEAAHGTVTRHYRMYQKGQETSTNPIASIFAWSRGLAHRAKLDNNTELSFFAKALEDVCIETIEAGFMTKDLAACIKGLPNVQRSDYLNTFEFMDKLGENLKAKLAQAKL

As usually defined, the EC50 is the concentration that produces a half-maximal response. Lower therefore signals an effect from little substance. In the case of `N#Cc1ccnc(N2C(=O)CC[C@H]2C(=O)N(c2cncc(F)c2)[C@H](C(=O)NC2CC(F)(F)C2)c2ccccc2Cl)c1` [AG-120], the EC50 worked out at 110 ± 2 nM.

(Values after publication doi:10.1101/2020.11.19.390633v1 (biorxiv, 2020).)
